Results published in patent US20220220472A1, “TARGETED THERAPY” (The Regents of the University of Michigan, priority 2019, published 2022).

Assays:
HCT116 cells = experiment: Clonogenic survival of HCT116 cells with Dox-inducible dCas9-Fok1-GFP and gRNA pairs; assay type: cell-based; settings: Nu7441 200 nM, 12 days, no gRNA
Procedure: Cells were plated and treated with different concentrations of Dox for 12 days. Cells were then fixed and stained, colonies were counted, and colony numbers were reported as a percentage of control cells not treated with Dox. […] Cells were plated and treated with different concentrations of Dox for 12 days. Cells were then fixed and stained and colonies counted and expressed as a percentage of control cells not treated with Dox. In FIG. 5A and FIG. 5B, the gRNA pairs target two CRJs on chromosome 3 (3ab and 3cd), one on chromosome 5 (5ab), and one on the X chromosome (xab).
During the development of embodiments of the technology provided herein, experiments were conducted to evaluate use of a dCas9-Fok1 fusion protein and to produce a dCas9-Fok1 fusion protein further comprising a GFP domain to provide a tool to detect expression in cells. Furthermore, the dCas9-Fok1-GFP fusion and the gRNA genes were placed under the regulation of a tet-inducible promoter for performing experiments to establish the cells in culture or as xenografts and then induce expression by addition of doxycycline (Dox). […]
HCT116 cells with stable expression of dCas9-Fok1-GFP, 3ab3cd/Fok1-dcas9-GFP, 5ab3cd/Fok1-GFP, and 3abxab/dCas9-GFP were maintained in DMEM containing 10% FBS. […] Clonogenic survival colonies with 50 cells or more were counted.

UMUC-3 orthotopic tumors = experiment: UMUC-3 orthotopic xenograft tumor growth in NOD-scid mice; assay type: in vivo; settings: UMUC-3 in NODscid mice; doxycycline plus Nu7441
Procedure: FIG. 7 is a schematic drawing showing an in vivo experiment comparing tumor growth between UMUC-3 cells expressing non-targeting gRNAs (left) and UMUC-3 cells expressing CRJ-targeting gRNAs (right). These cell lines are engineered to express luciferase for bioluminescent monitoring. Each mouse group represents 10 NODscid mice. […] Accordingly, further experiments are conducted to grow these cell lines as orthotopic xenografts in NOD-scid mice and to monitor tumor growth (e.g., using bioluminescence) in vivo as the CRISPR reagents are induced by doxycycline (e.g., provided in food and/or water). UMUC-3 cells are grown as orthotopic tumors in NOD-scid mice, animals are given doxycycline to induce Fok1-dCas9 and the two pairs of gRNAs in the cancer cells, and the effects on tumor growth are assessed by bioluminescence. […] The other cell line expresses CRJ-targeting gRNAs following doxycycline exposure. Experiments are conducted with or without a DNA-PK inhibitor (e.g., Nu7441) and with and without doxycycline in the drinking water and/or in the food. 10 animals are used per group with 8 groups for a total of 80 animals (FIG. 7).

[1] = test system: UMUC-3 bladder cancer cells; experiment: Clonogenic survival assay in UMUC-3 bladder cancer cells; assay type: cell-based, human; settings: doxycycline induction plus Nu7441
From the text: FIG. 6C is a series of bar plots showing data collected from an […] clonogenic survival assay in the UMUC-3 bladder cells shown schematically in FIG. 6B. […] Further, treatments with the DNA-PK inhibitor Nu7441 improved the toxicity of the CRJ-targeting gRNAs (bottom row). The data are expressed as the mean and standard deviation of three biological replicates. Numbers (3a & X; 7 & 2; 7 & 4; 19 & 2; and 19 & 4) indicate the combinations of gRNA used for the experiment.
First, CRJs were identified in bladder cancer cells (see, e.g., FIG. 6A). Using sequence information from the CRJs identified in bladder cancer cells, gRNA were designed and UMUC-3 (ATCC Accession CRL-1749) cell lines were produced comprising doxycycline-inducible expression of Fok1-dCas9 and the CRJ-targeting gRNAs. gRNA sequences are provided in Table 2.
Six UMUC-3 bladder cancer sublines were generated—Two control cell lines were produced, one expressing no gRNAs and one expressing 2 pairs of non-targeting gRNAs; four experimental cell lines were produced expressing Fok1-dCas9-GFP and two pairs of CRJ-targeting gRNAs under the regulation of doxycycline (see, e.g., FIG. 6B). CRJ-specific DSBs were induced in the cells (e.g., using doxycycline) and toxicity was monitored to determine if interfering with DSB repair leads to increased killing of bladder cancer cells (see, e.g., FIG. 6C, top row). […]

HCT116 xenografts = experiment: HCT116 xenograft tumor growth in mice; assay type: in vivo; settings: water with Dox and Nu7441
Procedure: In these experiments, HCT116 cells are injected into mice and each group is split into three treatment groups that receive ether regular water, water with Dox, or water with Dox and Nu7441.
Experiments are conducted in which three of the HCT116 cell lines with dox-inducible expression of dCas9-Fok1-GFP with and without CRJ-targeting gRNAs are used to form xenografts in the flank of mice. In these experiments, one million HCT116 cells in a 100 μl Matrigel suspension are injected s.c. into the hind leg of the mice (a total of 54 NOD/SCID or athymic BALB/C, 10-12 weeks old). When tumors reach sizes of 50-150 mm^3, each group is split into three groups (see, e.g., FIG. 2) where they receive ether regular water, water with Dox, or water with Dox and Nu7441. Tumor measurements are taken daily and mouse weights are recorded 3 times weekly. As the control tumors reach the predetermined tumor size limit, animals are euthanized. At this time, the tumors are removed, weighed, and documented (e.g., using digital imaging) and used for downstream analyses. Downstream analyses include measuring expression of dCas9-Fok1-GFP (green fluorescence) and γH2AX ChIP-PCR with primers for sequences near the CRJ and sequences far away as a control.

O=c1cc(N2CCOCC2)oc2c(-c3cccc4c3sc3ccccc34)cccc12 [Nu7441]
effect of Nu7441 on clonogenicity of cells expressing dCas9-Fok1-GFP alone (HCT116 cells): did not affect clonogenicity
tumor growth inhibition with Nu7441 (UMUC-3 orthotopic tumors): augments tumor growth inhibition
toxicity / survival with DNA-PK inhibitor Nu7441 [1]: augmented this effect
suppression of tumor growth with Nu7441 (HCT116 xenografts): Suppression of tumor growth is augmented
